These results are taken from ChEMBL document CHEMBL1128611, “Evolution of a series of non-quinoline leukotriene D4 receptor antagonist; synthesis and sar of benzothiazoles and thiazoles substituted benzyl alcohols as potent LTD4 antagonists” (Bioorg Med Chem Lett, 1995).

Values joined by “and” are separate entries in the source; they are usually repeats but may differ in a detail not shown here. Equal entries are not always repeated.

Test [1] deals with T1, Cysteinyl leukotriene receptor 1 (Cavia porcellus, UniProt Q2NNR5).
T1 sequence (Q2NNR5 whole entry): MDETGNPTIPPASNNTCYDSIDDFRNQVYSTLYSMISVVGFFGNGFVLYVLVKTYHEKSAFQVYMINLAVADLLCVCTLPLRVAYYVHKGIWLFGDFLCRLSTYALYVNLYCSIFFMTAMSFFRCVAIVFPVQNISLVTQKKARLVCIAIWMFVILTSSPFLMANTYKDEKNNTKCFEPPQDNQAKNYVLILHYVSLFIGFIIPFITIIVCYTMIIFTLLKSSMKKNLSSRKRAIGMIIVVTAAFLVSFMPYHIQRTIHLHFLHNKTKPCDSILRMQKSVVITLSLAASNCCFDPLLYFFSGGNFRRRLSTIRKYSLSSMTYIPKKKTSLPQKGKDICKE
Description: Inhibition of [3H]LTD4 binding on guinea-pig lung membranes. Format: tissue-based, Membrane.

Test [2] deals with Monkey. Kind of test: Inhibition of LTD4-induced bronchoconstriction in conscious squirrel monkey. Format: functional.
Test [3] concerns Mus musculus. Description: Compound was evaluated for its effect on the liver weight in mice after 4 days dosing at 400 mg/Kg perorally. It is filed as functional.
Test [4] deals with Monkey. Description: […] inhibition of peptidoleukotriene -induced reduction in dynamic compliance in conscious squirrel monkey at a dose of 0.03 mg/Kg. It is filed as functional.
The test system of test [5] is Mus musculus. Kind of test: […] effect on peroximal enzyme induction (PEI) over control animals (mice) after 4 days dosing at 400 mg/Kg perorally. Format: functional.
For test [6], the species on record is Cavia porcellus. Description: Inhibition of LTD4-induced contraction of guinea-pig tracheal chains. Format: functional, Trachea.
Test [7] concerns Mus musculus. Description: […] effect on the liver weight in mice after 4 days dosing at 400 mg/Kg perorally. It is filed as functional.
In test [8] the test system is Monkey. Description: […] inhibition of peptidoleukotriene -induced reduction in dynamic compliance in conscious squirrel monkey at a dose of 0.1 mg/Kg. It is filed as functional.

As for `CC(C)(O)c1ccccc1CC[C@@H](SCC1(CC(=O)O)CC1)c1cccc(/C=C/c2nc(-c3ccc(F)cc3)cs2)c1`, in test [1], the IC50 is 6.7 nM and 15.4 nM.

In the case of `CC(CC(F)(F)F)c1csc(/C=C/c2cccc([C@@H](CCc3ccccc3C(C)(C)O)SCC3(CC(=O)O)CC3)c2)n1` (some centres undefined), in test [1], the IC50 is 0.7 nM and 1 nM.

`CC(C)(O)c1ccccc1CC[C@@H](SCC1(CC(=O)O)CC1)c1cccc(/C=C/c2nc3c(s2)CCCC3)c1` showed an IC50 in test [1] of 1.5 nM.

Take `CC(C)(O)c1ccccc1CC[C@@H](SCC1(CC(=O)O)CC1)c1cccc(/C=C/c2nc(C3CC3)cs2)c1`: the IC50 in test [1] was 1.7 nM and 3.3 nM.

In the case of `CC(C)c1nc(/C=C/c2cccc([C@@H](CCc3ccccc3C(C)(C)O)SCC3(CC(=O)O)CC3)c2)sc1Cl`, in test [1], the IC50 was 170 nM and 197 nM.

With `CC(C)(O)c1ccccc1CC[C@@H](SCC1(CC(=O)O)CC1)c1cccc(/C=C/c2nc3cc(Cl)ccc3s2)c1`, the IC50 in test [1] was 7.7 nM and 6 nM.

In turn, `CC(C)(O)c1ccccc1CC[C@@H](SCC1(CC(=O)O)CC1)c1cccc(/C=C/c2nc(C3CCCCC3)cs2)c1` gave an IC50 in test [1] of 2.1 nM.

In turn, `CC(C)(O)c1ccccc1CC[C@@H](SCC1(CC(=O)O)CC1)c1cccc(/C=C/c2nc(CSc3ccccc3)cs2)c1` had an IC50 in test [1] of 42.2 nM.

On to `COc1ccc(-c2csc(/C=C/c3cccc([C@@H](CCc4ccccc4C(C)(C)O)SCC4(CC(=O)O)CC4)c3)n2)cc1`, for which the IC50 in test [1] is 98.7 nM and 138 nM.

Consider `Cc1sc(/C=C/c2cccc([C@@H](CCc3ccccc3C(C)(C)O)SCC3(CC(=O)O)CC3)c2)nc1C(C)C`, for which the IC50 in test [1] is 12.8 nM and 5.2 nM.

As for `CC(C)(O)c1ccccc1CC[C@@H](SCC1(CC(=O)O)CC1)c1cccc(/C=C/c2nc3ccccc3s2)c1`, the IC50 in test [1] amounted to 16.8 nM.

As to `CC(C)(O)c1ccccc1CC[C@@H](SCC1(CC(=O)O)CC1)c1cccc(/C=C/c2nc3cc(C(F)(F)F)ccc3s2)c1`, the IC50 in test [1] is 7.5 nM and 11.6 nM.

`CC(C)(O)c1ccccc1CC[C@@H](SCC1(CC(=O)O)CC1)c1cccc(/C=C/c2nccs2)c1` displayed an IC50 in test [1] of 381 nM.

In turn, `CC(C)c1csc(/C=C/c2cccc([C@@H](CCc3ccccc3C(C)(C)O)SCC3(CC(=O)O)CC3)c2)n1` displayed an RL in test [2] of 40%. Further, the Weight in test [3] was determined as 9%. Moreover, in test [4], the Cdyn is reported as -8%. The PEI in test [5] came out at 62. In addition, the IC50 in test [1] was 1.9 nM. The pKb in test [6] turned out to be 9.1.

As to `CC(C)(C)c1csc(/C=C/c2cccc([C@@H](CCc3ccccc3C(C)(C)O)SCC3(CC(=O)O)CC3)c2)n1`, in test [1], the IC50 was 2 nM and 3.3 nM.

`CC(C)(O)c1ccccc1CC[C@@H](SCC1(CC(=O)O)CC1)c1cccc(/C=C/c2nc(C3CCC3)cs2)c1`: the IC50 in test [1] is 0.6 nM and 0.5 nM.

In the case of `CC(C)(O)c1ccccc1CC[C@@H](SCC1(CC(=O)O)CC1)c1cccc(/C=C/c2nc3cc(F)c(F)cc3s2)c1`, the IC50 in test [1] worked out at 0.8 nM.

`COc1ccc2nc(/C=C/c3cccc([C@@H](CCc4ccccc4C(C)(C)O)SCC4(CC(=O)O)CC4)c3)sc2c1` yielded an IC50 in test [1] of 47.6 nM.

On to `CC(C)(O)c1ccccc1CC[C@@H](SCC1(CC(=O)O)CC1)c1cccc(/C=C/c2nc(-c3ccccc3)cs2)c1`, for which the IC50 in test [1] is 11 nM and 6.7 nM.

The molecule `CC(C)(O)c1ccccc1CC[C@@H](SCC1(CC(=O)O)CC1)c1cccc(/C=C/c2nc3cc(F)ccc3s2)c1` returned an RL in test [2] of 73%. Also, the Cdyn in test [4] came out at 100%. The molecule further registered a PEI in test [5] of 120. Further, in test [1], the IC50 was 3.3 nM. For the same molecule, in test [7], the Weight was determined as 12%. Further, in test [6], the pKb was 8.8.

`CC(C)(O)c1ccccc1CC[C@@H](SCC1(CC(=O)O)CC1)c1cccc(/C=C/c2nc(C3CCCC3)cs2)c1`: the IC50 in test [1] is 1.4 nM and 0.8 nM.

For the molecule `CC(C)(O)c1ccccc1CC[C@@H](SCC1(CC(=O)O)CC1)c1cccc(/C=C/c2nc(-c3ccc(Cl)cc3)cs2)c1`, the IC50 in test [1] was 79.3 nM and 99.7 nM.

On to `CC(C)(O)c1ccccc1CC[C@@H](SCC1(CC(=O)O)CC1)c1cccc(/C=C/c2nc3c(s2)CCC3)c1`, for which the half-maximal inhibitory concentration (IC50) in test [1] was 3 nM and 4.6 nM.

For `CN(C)C(=O)CCS[C@H](SCCC(=O)O)c1cccc(/C=C/c2ccc3ccc(Cl)cc3n2)c1` [VERLUKAST], the Cdyn in test [8] is reported as 56%. The RL in test [2] came to 59%. In addition, in test [5], the PEI came to 65. For the same molecule, the 50% inhibitory concentration (IC50) in test [1] is 3.9 nM. Besides, the Weight in test [7] was found to be 0%. The molecule also returned a pKb in test [6] of 8.9.

The term IC50 denotes the concentration that gives 50% inhibition. What is called pKb is −log10 of the Kb, conventionally taken in molar units.
